In test [1] the target is mutant CRAF enzyme (RAF1 Y340D and Y341D) (Homo sapiens (Human), UniProt P04049, Y340D/Y341D). Kind of test: RAF inhibition assay (TB-PMAP2K1 kit), mutant CRAF. The following applies: FLUORESCEIN-MAP2K1 substrate, 60 min reaction. In kind it is biochemical.
Test [2] deals with mutant BRAF enzyme (BRAF-V600E) (Homo sapiens (Human), UniProt P15056, V600E). Kind of test: RAF inhibition assay (TB-PMAP2K1 kit), BRAF-V600E. In kind it is biochemical. The following applies: FLUORESCEIN-MAP2K1 substrate, 60 min reaction.
mutant BRAF enzyme (BRAF-V600E), sequence (P15056 whole entry V600E): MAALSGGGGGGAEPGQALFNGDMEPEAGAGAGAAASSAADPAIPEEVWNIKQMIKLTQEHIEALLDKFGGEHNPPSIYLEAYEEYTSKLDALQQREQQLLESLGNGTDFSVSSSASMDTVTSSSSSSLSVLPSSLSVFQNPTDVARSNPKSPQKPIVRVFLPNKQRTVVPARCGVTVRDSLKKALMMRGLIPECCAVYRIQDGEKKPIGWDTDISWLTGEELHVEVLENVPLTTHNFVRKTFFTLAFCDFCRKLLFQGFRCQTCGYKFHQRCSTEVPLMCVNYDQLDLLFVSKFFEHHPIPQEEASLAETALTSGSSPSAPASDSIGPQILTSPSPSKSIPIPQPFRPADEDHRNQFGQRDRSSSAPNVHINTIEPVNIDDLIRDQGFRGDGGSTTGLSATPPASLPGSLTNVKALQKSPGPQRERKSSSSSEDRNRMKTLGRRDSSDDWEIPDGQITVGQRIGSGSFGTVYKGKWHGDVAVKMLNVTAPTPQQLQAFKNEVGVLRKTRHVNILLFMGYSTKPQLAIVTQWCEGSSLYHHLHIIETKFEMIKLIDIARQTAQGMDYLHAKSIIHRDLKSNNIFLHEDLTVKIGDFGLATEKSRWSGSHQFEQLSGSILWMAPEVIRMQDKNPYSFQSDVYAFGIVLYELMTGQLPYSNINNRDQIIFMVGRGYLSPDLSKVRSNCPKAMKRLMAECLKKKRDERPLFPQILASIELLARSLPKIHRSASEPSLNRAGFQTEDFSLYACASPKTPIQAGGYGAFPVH

mutant CRAF enzyme (RAF1 Y340D and Y341D), sequence (P04049 whole entry Y340D/Y341D): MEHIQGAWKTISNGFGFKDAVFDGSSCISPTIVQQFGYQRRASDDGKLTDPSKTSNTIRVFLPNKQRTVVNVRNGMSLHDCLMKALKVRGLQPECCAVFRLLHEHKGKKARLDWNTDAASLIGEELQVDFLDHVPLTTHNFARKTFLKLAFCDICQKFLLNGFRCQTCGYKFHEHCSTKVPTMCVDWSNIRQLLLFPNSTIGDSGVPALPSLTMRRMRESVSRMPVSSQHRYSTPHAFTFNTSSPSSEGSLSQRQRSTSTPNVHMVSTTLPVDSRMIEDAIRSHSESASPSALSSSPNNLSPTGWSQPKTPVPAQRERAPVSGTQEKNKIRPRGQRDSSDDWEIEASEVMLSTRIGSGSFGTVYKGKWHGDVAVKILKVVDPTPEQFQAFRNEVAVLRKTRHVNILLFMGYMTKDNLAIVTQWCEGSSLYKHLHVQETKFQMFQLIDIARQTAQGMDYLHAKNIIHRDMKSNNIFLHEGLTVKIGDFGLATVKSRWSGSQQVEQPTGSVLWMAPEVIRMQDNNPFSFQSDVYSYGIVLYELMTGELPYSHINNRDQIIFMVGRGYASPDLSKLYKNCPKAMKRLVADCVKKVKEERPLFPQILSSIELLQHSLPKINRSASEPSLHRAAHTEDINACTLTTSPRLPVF

Turning to `Cc1ccc2c(C(O)c3cccc(C(F)(F)F)c3)nccc2c1NC(=O)c1csc2c(N)ncnc12` (stereo not drawn) [Compound 23, 4-amino-N-(1-(hydroxy(3-(trifluoromethyl)phenyl)methyl)-6-methylisoquinolin-5-yl)thieno[3,2-d]pyrimidine-7-carboxamide], the IC50 in test [1] was 3.93 ± 1 nM; in test [2] it was 13.2 ± 3.17 nM.
In the case of `Cc1ccc2c(C(O)c3ccc(Cl)cc3F)nccc2c1NC(=O)c1csc2c(N)ncnc12` (stereo not drawn) [Compound 28, 4-amino-N-(1-((4-chloro-2-fluorophenyl)(hydroxy)methyl)-6-methylisoquinolin-5-yl)thieno[3,2-d]pyrimidine-7-carboxamide], the results for the IC50 in test [1] and in test [2] were 3.48 ± 0.48 nM and 4.58 ± 0.72 nM, respectively.
`Cc1ccc2c(C(C)Oc3ccccc3)nccc2c1NC(=O)c1csc2c(N)ncnc12` (stereo not drawn) [Compound 35, 4-amino-N-(6-methyl-1-(1-phenoxyethyl)isoquinolin-5-yl)thieno[3,2-d]pyrimidine-7-carboxamide]: the IC50 is 15.4 ± 1.89 nM in test [1] and 50.4 ± 12.6 nM in test [2].
Take `Cc1ccc2c(Nc3cccc(Cl)c3)nccc2c1NC(=O)c1cccc2c(N)ncnc12` [Compound 38, 4-amino-N-(1-((3-chlorophenyl)amino)-6-methylisoquinolin-5-yl)quinazoline-8-carboxamide]: the half-inhibitory concentration (IC50) in test [1] was found to be 10.8 ± 2.02 nM; in test [2], 9.5 ± 2.68 nM.
As to `Cc1ccc2c(Nc3ccccc3F)nccc2c1NC(=O)c1cccc2c(N)ncnc12` [Compound 39, 4-amino-N-(1-((2-fluorophenyl)amino)-6-methylisoquinolin-5-yl)quinazoline-8-carboxamide], the results for the IC50 in test [1] and in test [2] were 2.6 ± 0.21 nM and 1.74 ± 0.23 nM, respectively.
For the molecule `Cc1ccc2c(Nc3ccc(Cl)cc3F)nccc2c1NC(=O)c1cccc2c(N)ncnc12` [Compound 41, 4-amino-N-(1-((4-chloro-2-fluorophenyl)amino)-6-methylisoquinolin-5-yl)quinazoline-8-carboxamide], the results for the concentration for half-maximal inhibition (IC50) in test [1] and in test [2] were 25 ± 9.32 nM and 12.7 ± 2.28 nM, respectively.
For the molecule `Cc1ccc2c(Nc3cccc(C(F)(F)F)c3)nccc2c1NC(=O)c1cnc2c(N)ncnn12` [Compound 43, 4-amino-N-(6-methyl-1-((3-(trifluoromethyl)phenyl)amino)isoquinolin-5-yl)imidazo[2,1-f][1,2,4]triazine-7-carboxamide], the IC50 worked out at 4.49 ± 0.95 nM in test [1] and 4.84 ± 0.97 nM in test [2].
`Cc1ccc2c(Nc3cccc(Cl)c3F)nccc2c1NC(=O)c1cc(F)cc2c(N)ncnc12` [Compound 46, 4-amino-N-(1-((3-chloro-2-fluorophenyl)amino)-6-methylisoquinolin-5-yl)-6-fluoroquinazoline-8-carboxamide]: the results for the half-maximal inhibitory concentration (IC50) in test [1] and in test [2] were 38.1 ± 21.9 nM and 16.2 ± 5.93 nM, respectively.
`Cc1ccc2c(Nc3ccc(F)c(Cl)c3)nccc2c1NC(=O)c1cnc2c(N)ncnn12` [Compound 58, 4-amino-N-(1-((3-chloro-4-fluorophenyl)amino)-6-methylisoquinolin-5-yl)imidazo[2,1-f][1,2,4]triazine-7-carboxamide]: the concentration for half-maximal inhibition (IC50) in test [1] stood at 2.68 ± 0.13 nM; in test [2], 4.47 ± 0.6 nM.
As for `COc1ccc(Nc2nccc3c(NC(=O)c4cccc5c(N)ncnc45)c(C)ccc23)c(F)c1` [Compound 60, 4-amino-N-(1-((2-fluoro-4-methoxyphenyl)amino)-6-methylisoquinolin-5-yl)quinazoline-8-carboxamide], the half-maximal inhibitory concentration (IC50) in test [1] was determined as 3.14 ± 0.09 nM; in test [2], 6.31 ± 1.09 nM.
For `Cc1ccc2c(Nc3ccc(F)cc3F)nccc2c1NC(=O)c1cccc2c(N)ncnc12` [Compound 67, 4-amino-N-(1-((2,4-difluorophenyl)amino)-6-methylisoquinolin-5-yl)quinazoline-8-carboxamide], the figures for the IC50 in test [1] and in test [2] were 5.76 ± 1.04 nM and 8.66 ± 0.95 nM, respectively.
Take `Cc1ccc2c(Nc3cc(Cl)ccc3F)nccc2c1NC(=O)c1cccc2c(N)ncnc12` [Compound 73, 4-amino-N-(1-((5-chloro-2-fluorophenyl)amino)-6-methylisoquinolin-5-yl)quinazoline-8-carboxamide]: the concentration for half-maximal inhibition (IC50) amounted to 8.78 ± 1.48 nM in test [1] and 11.9 ± 2.3 nM in test [2].
In the case of `Cc1ccc2c(Nc3ccc(F)cc3F)nccc2c1NC(=O)c1cc(F)cc2c(N)ncnc12` [Compound 85, 4-amino-N-(1-((2,4-difluorophenyl)amino)-6-methylisoquinolin-5-yl)-6-fluoroquinazoline-8-carboxamide], the half-maximal inhibitory concentration (IC50) in test [1] was determined as 4.43 ± 0.32 nM; in test [2], 9.02 ± 0.86 nM.
As for `Cc1ccc2c(Nc3cc(S(C)(=O)=O)ccc3F)nccc2c1NC(=O)c1cccc2c(N)ncnc12` [Compound 89, 4-amino-N-(1-((2-fluoro-5-(methylsulfonyl)phenyl)amino)-6-methylisoquinolin-5-yl)quinazoline-8-carboxamide], the figures for the 50% inhibitory concentration (IC50) in test [1] and in test [2] were 4.26 ± 0.16 nM and 7.58 ± 0.51 nM, respectively.
Regarding `Cc1ccc2c(Nc3cc(F)c(F)cc3F)nccc2c1NC(=O)c1cccc2c(N)ncnc12` [Compound 90, 4-amino-N-(6-methyl-1-((2,4,5-trifluorophenyl)amino)isoquinolin-5-yl)quinazoline-8-carboxamide], the IC50 in test [1] is 14.2 ± 6.59 nM; in test [2] it was 18.6 ± 2.25 nM.
As for `Nc1ncnc2c(C(=O)Nc3c(F)ccc4c(Nc5cccc(Cl)c5F)nccc34)cccc12` [Compound 92, 4-amino-N-(1-((3-chloro-2-fluorophenyl)amino)-6-fluoroisoquinolin-5-yl)quinazoline-8-carboxamide], the 50% inhibitory concentration (IC50) in test [1] is 10.8 ± 4.78 nM; in test [2], 5.34 ± 0.75 nM.
Consider `Cc1ccc2c(Nc3cccc(Cl)c3F)nccc2c1NC(=O)c1ccc(F)c2c(N)ncnc12` [Compound 93, 4-amino-N-(1-((3-chloro-2-fluorophenyl)amino)-6-methylisoquinolin-5-yl)-5-fluoroquinazoline-8-carboxamide], for which the values for the IC50 in test [1] and in test [2] were 5.73 ± 0.36 nM and 5.03 ± 0.54 nM, respectively.
Take `Cc1ccc2c(Nc3c(F)cc(F)cc3F)nccc2c1NC(=O)c1cccc2c(N)ncnc12` [Compound 94, 4-amino-N-(6-methyl-1-((2,4,6-trifluorophenyl)amino)isoquinolin-5-yl)quinazoline-8-carboxamide]: the results for the IC50 in test [1] and in test [2] were 4.24 ± 0.17 nM and 3.46 ± 0.22 nM, respectively.
